According to patent US8324198B1, “Monocarbams” (Pfizer Inc., priority 2008, dated 2012):
≈ marks a conversion by molar mass, not a printed value. Structures can show the parent of a compound that is named as a salt.

Legend:
[1] = tested on: Pseudomonas aeruginosa 1045-06; assay: In vitro MIC, Pseudomonas aeruginosa 1045-06; assay type: cell-based; settings: strain 1045-06, resistant to carbapenems, aminoglycosides and fluoroquinolones
Source text: (§1) Culture collection strain 1045-06 is resistant to several classes of known antimicrobial agents including carbapenems, aminoglycosides and fluoroquinolones, while strains 1000-02 and 3167 are resistant to cephalosporins. Strain PA0200 is a derivative of laboratory strain PAO1 that lacks a functional MexAB-oprM efflux pump.

[2] = tested on: Klebsiella pneumoniae 1000-02; assay: In vitro MIC, Klebsiella pneumoniae 1000-02; assay type: cell-based; settings: strain 1000-02, resistant to cephalosporins
Source text: as §1

[3] = tested on: Acinetobacter baumanii 3167; assay: In vitro MIC, Acinetobacter baumanii 3167; assay type: cell-based; settings: strain 3167, resistant to cephalosporins
Source text: as §1

[4] = tested on: P. aeruginosa 1091-05; assay: In vitro MIC, P. aeruginosa 1091-05; assay type: cell-based; settings: for MIC: Pseudomonas aeruginosa, 109105, read-out: Pa 1091-05 MIC
[5] = tested on: P. aeruginosa 1091-05; assay: Murine respiratory tract infection model against P. aeruginosa 1091-05 (PD50); assay type: in vivo; settings: for RTI PD50 vs. Pa 1091-05 (95% confidence interval): immunosuppressed C3H/HeN mice, intranasal challenge, subcutaneous BID for two days from 4 h post-challenge, lethality over ten days; for Efficacy relative to Comparative Example A (PD50, 95% confidence intervals): murine respiratory tract infection model, P. aeruginosa 1091-05
Protocol: For this model, C3H/HeN mice were immunosuppressed with cyclophosphamide given orally at 150 mg/kg and 100 mg/kg on days −4 and −1 relative to challenge, respectively. Mice were anesthetized with isoflurane (5% in oxygen) and the bacterial inoculum was given to each mouse via intranasal instillation in a 40 μL volume (˜2.8×10^3 cfu per mouse). Mice were dosed with compound administered via subcutaneous injection beginning at four hours post-challenge, and continuing for two days of BID therapy.
PD50 is a measure of the ability of a compound to protect mice from a lethal infection.

[6] = tested on: Pseudomonas aeruginosa PA0200 MexAB-oprM KO; assay: In vitro MIC, Pseudomonas aeruginosa PA0200 MexAB-oprM KO; assay type: cell-based; settings: PAO1, read-out: MIC Pseudomonas aeruginosa PA0200 MexAB-oprM KO
Source text: as §1

| Compound | MIC Pseudomonas aeruginosa 1045-06 [1] [µg/mL] | MIC Klebsiella pneumoniae 1000-02 [2] [µg/mL] | MIC Acinetobacter baumanii 3167 [3] [µg/mL] | Pa 1091-05 MIC [4] [µg/mL] | RTI PD50 vs. Pa 1091-05 (95% confidence interval) ([5]; disodium salt) | Efficacy relative to Comparative Example A (PD50, 95% confidence intervals) [5] | MIC [6] [µg/mL] | MIC [4] [µg/mL] | RTI PD50 vs. Pa 1091-05 (95% confidence interval) [5] [mg/kg] |
| --- | --- | --- | --- | --- | --- | --- | --- | --- | --- |
| 2-({[(1Z)-2-{[(3S)-1-({[4-(2-amino-2-oxoethyl)-3-(5-hydroxy-4-oxo-1,4-dihydropyridin-2-yl)-5-oxo-4,5-dihydro-1H-1,2,4-triazol-1-yl]sulfonyl}carbamoyl)-2-oxoazetidin-3-yl]amino}-1-(2-amino-1,3-thiazol-4-yl)-2-oxoethylidene]amino}oxy)-2-methylpropanoic acid, disodium salt [Example 4] | 500 | 1000 | 1000 | 125 | 25.0 (24.8-25.2) mg/kg | significantly more efficacious relative to Comparative Example A |  |  |  |
| CCn1c(-c2cc(=O)c(O)c[nH]2)nn(S(=O)(=O)NC(=O)N2C[C@H](NC(=O)C(=NOC(C)(C)C(=O)O)c3csc(N)n3)C2=O)c1=O (stereo in doubt) [Example 1, 2-({[(1E)-1-(2-amino-1,3-thiazol-4-yl)-2-{[(3S)-1-({[4-ethyl-3-(5-hydroxy-4-oxo-1,4-dihydropyridin-2-yl)-5-oxo-4,5-dihydro-1H-1,2,4-triazol-1-yl]sulfonyl}carbamoyl)-2-oxoazetidin-3-yl]amino}-2-oxoethylidene]amino}oxy)-2-methylpropanoic acid] |  |  |  |  |  |  | < 62.5 |  |  |
| CO/N=C(\C(=O)N[C@@H]1C(=O)N2C(C(=O)[O-])=C(C[N+]3(C)CCCC3)CS[C@H]12)c1csc(N)n1 [Cefepime, reference compound] |  |  |  |  |  |  |  | 2000 (≈ 4160 µM) | 22 |
| CN(C)CCn1c(-c2cc(=O)c(O)c[nH]2)nn(S(=O)(=O)NC(=O)N2C[C@H](NC(=O)/C(=N\OC(C)(C)C(=O)O)c3csc(N)n3)C2=O)c1=O [Example 2, 2-({[(1Z)-1-(2-amino-1,3-thiazol-4-yl)-2-({(3S)-1-[({4-[2-(dimethylamino)ethyl]-3-(5-hydroxy-4-oxo-1,4-dihydropyridin-2-yl)-5-oxo-4,5-dihydro-1H-1,2,4-triazol-1-yl}sulfonyl)carbamoyl]-2-oxoazetidin-3-yl}amino)-2-oxoethylidene]amino}oxy)-2-methylpropanoic acid] |  |  |  |  |  |  | 188 (≈ 264 µM) |  |  |
| CC(C)(O/N=C(\C(=O)N[C@H]1CN(C(=O)NS(=O)(=O)n2nc(-c3cc(=O)c(O)c[nH]3)n(C[C@@H](O)CO)c2=O)C1=O)c1csc(N)n1)C(=O)[O-].CC(C)(O/N=C(\C(=O)N[C@H]1CN(C(=O)NS(=O)(=O)n2nc(-c3cc(=O)c(O)c[nH]3)n(C[C@@H](O)CO)c2=O)C1=O)c1csc(N)n1)C(=O)[O-].[Na+].[Na+] [Example 3, 2-({[(1Z)-1-(2-amino-1,3-thiazol-4-yl)-2-({(3S)-1-[({4-[(2R)-2,3-dihydroxypropyl]-3-(5-hydroxy-4-oxo-1,4-dihydropyridin-2-yl)-5-oxo-4,5-dihydro-1H-1,2,4-triazol-1-yl}sulfonyl)carbamoyl]-2-oxoazetidin-3-yl}amino)-2-oxoethylidene]amino}oxy)-2-methylpropanoic acid, disodium salt] | 500 | 500 | 500 | 125 | 20.6 (8.7-32.52) mg/kg | significantly more efficacious relative to Comparative Example A |  |  |  |
| CC(C)(O/N=C(\C(=O)N[C@H]1CN(C(=O)NS(=O)(=O)n2nc(-c3cc(=O)c(O)c[nH]3)n(C[C@H](O)CO)c2=O)C1=O)c1csc(N)n1)C(=O)[O-].CC(C)(O/N=C(\C(=O)N[C@H]1CN(C(=O)NS(=O)(=O)n2nc(-c3cc(=O)c(O)c[nH]3)n(C[C@H](O)CO)c2=O)C1=O)c1csc(N)n1)C(=O)[O-].[Na+].[Na+] [Example 5, 2-({[(1Z)-1-(2-amino-1,3-thiazol-4-yl)-2-({(3S)-1-[({4-[(2S)-2,3-dihydroxypropyl]-3-(5-hydroxy-4-oxo-1,4-dihydropyridin-2-yl)-5-oxo-4,5-dihydro-1H-1,2,4-triazol-1-yl}sulfonyl)carbamoyl]-2-oxoazetidin-3-yl}amino)-2-oxoethylidene]amino}oxy)-2-methylpropanoic acid, disodium salt] | 250 | 500 | 500 | 125 | 18.6 (8.94-28.29) mg/kg | significantly more efficacious relative to Comparative Example A |  |  |  |
| C[C@@H](O)Cn1c(-c2cc(=O)c(O)c[nH]2)nn(S(=O)(=O)NC(=O)N2C[C@H](NC(=O)/C(=N\OC(C)(C)C(=O)[O-])c3csc(N)n3)C2=O)c1=O.C[C@@H](O)Cn1c(-c2cc(=O)c(O)c[nH]2)nn(S(=O)(=O)NC(=O)N2C[C@H](NC(=O)/C(=N\OC(C)(C)C(=O)[O-])c3csc(N)n3)C2=O)c1=O.[Na+].[Na+] [Example 6] | 250 | 500 | 1000 | 125 | 32.7 (23.7-42.0) mg/kg | significantly more efficacious relative to Comparative Example A |  |  |  |
| C[C@H](O)Cn1c(-c2cc(=O)c(O)c[nH]2)nn(S(=O)(=O)NC(=O)N2C[C@H](NC(=O)/C(=N\OC(C)(C)C(=O)[O-])c3csc(N)n3)C2=O)c1=O.C[C@H](O)Cn1c(-c2cc(=O)c(O)c[nH]2)nn(S(=O)(=O)NC(=O)N2C[C@H](NC(=O)/C(=N\OC(C)(C)C(=O)[O-])c3csc(N)n3)C2=O)c1=O.[Na+].[Na+] [Example 7, 2-({[(1Z)-1-(2-amino-1,3-thiazol-4-yl)-2-({(3S)-1-[({3-(5-hydroxy-4-oxo-1,4-dihydropyridin-2-yl)-4-[(2S)-2-hydroxypropyl]-5-oxo-4,5-dihydro-1H-1,2,4-triazol-1-yl}sulfonyl)carbamoyl]-2-oxoazetidin-3-yl}amino)-2-oxoethylidene]amino}oxy)-2-methylpropanoic acid, disodium salt] | 250 | 250 | 1000 | 125 | 15.7 (8.45-22.96) mg/kg | significantly more efficacious relative to Comparative Example A |  |  |  |
| CCCn1c(-c2cc(=O)c(O)c[nH]2)nn(S(=O)(=O)NC(=O)N2C[C@H](NC(=O)/C(=N\OC(C)(C)C(=O)O)c3csc(N)n3)C2=O)c1=O [Example 9, 2-({[(1Z)-1-(2-amino-1,3-thiazol-4-yl)-2-{[(3S)-1-({[3-(5-hydroxy-4-oxo-1,4-dihydropyridin-2-yl)-5-oxo-4-propyl-4,5-dihydro-1H-1,2,4-triazol-1-yl]sulfonyl}carbamoyl)-2-oxoazetidin-3-yl]amino}-2-oxoethylidene]amino}oxy)-2-methylpropanoic acid] |  |  |  |  |  |  | < 62.5 |  |  |
| CC(C)(O/N=C(\C(=O)N[C@H]1CN(C(=O)NS(=O)(=O)n2nc(-c3cc(=O)c(O)c[nH]3)n(CC(O)CO)c2=O)C1=O)c1csc(N)n1)C(=O)O (stereo partly drawn) [Example 10, 2-({[(1Z)-1-(2-amino-1,3-thiazol-4-yl)-2-{[(3S)-1-({[4-(2,3-dihydroxypropyl)-3-(5-hydroxy-4-oxo-1,4-dihydropyridin-2-yl)-5-oxo-4,5-dihydro-1H-1,2,4-triazol-1-yl]sulfonyl}carbamoyl)-2-oxoazetidin-3-yl]amino}-2-oxoethylidene]amino}oxy)-2-methylpropanoic acid] |  |  |  |  |  |  | 250 (≈ 350 µM) |  |  |
| CC(C)(O/N=C(\C(=O)N[C@H]1CN(C(=O)NS(=O)(=O)n2nc(-c3cc(=O)c(O)c[nH]3)n(CCN3CCCC3)c2=O)C1=O)c1csc(N)n1)C(=O)O [Example 11, 2-({[(1Z)-1-(2-amino-1,3-thiazol-4-yl)-2-{[(3S)-1-({[3-(5-hydroxy-4-oxo-1,4-dihydropyridin-2-yl)-5-oxo-4-(2-pyrrolidin-1-ylethyl)-4,5-dihydro-1H-1,2,4-triazol-1-yl]sulfonyl}carbamoyl)-2-oxoazetidin-3-yl]amino}-2-oxoethylidene]amino}oxy)-2-methylpropanoic acid] |  |  |  |  |  |  | 16000 (≈ 21700 µM) |  |  |
| COCCn1c(-c2cc(=O)c(O)c[nH]2)nn(S(=O)(=O)NC(=O)N2C[C@H](NC(=O)/C(=N\OC(C)(C)C(=O)O)c3csc(N)n3)C2=O)c1=O [Example 15, 2-({[(1Z)-1-(2-amino-1,3-thiazol-4-yl)-2-{[(3S)-1-({[3-(5-hydroxy-4-oxo-1,4-dihydropyridin-2-yl)-4-(2-methoxyethyl)-5-oxo-4,5-dihydro-1H-1,2,4-triazol-1-yl]sulfonyl}carbamoyl)-2-oxoazetidin-3-yl]amino}-2-oxoethylidene]amino}oxy)-2-methylpropanoic acid, disodium salt] |  |  |  |  |  |  |  | 500 | >70.8 |
| C[C@@H](O)[C@H]1C(=O)N2C(C(=O)O)=C(SCCN=CN)C[C@H]12 [Imipenem, reference compound] |  |  |  |  |  |  |  | 500 (≈ 1670 µM) | 1.04 |
